According to patent US7700088B2, “Interleukin-9 mutein peptides” (Genaera Corporation, priority 1995, dated 2010):
Entries after “also recorded” stand apart in the source; their conditions may differ.

Tests used:
[1] = test system: IL-9 mediated MO7e proliferation; assay: Inhibition of IL-9 mediated MO7e proliferation (acid phosphatase cell proliferation assay); format: cell-based, human; conditions: for inhibition of cellular growth induced by IL-9 (antagonism of IL-9): peptides incubated with MO7e cells, compared with control (no peptide); for inhibition of cellular growth induced by IL-9: tyrophostins incubated with MO7e cells, compared with control (no treatment)
Procedure: Cell lines were used to assess the function of peptides, aminosterols, tyrophostins, rhIL-9, rmIL-9, and recombinant mutant forms of these proteins as well as all other compounds that block IL-9 function. A proliferative response was measured and compared to each of the other cytokines, variant or mutant forms of Il-9, or IL-9 antagonists. In addition, compounds were tested for their ability to antagonize the baseline proliferative response. Once a baseline proliferative response was established for a cytokine a statistically significant loss of response in assays repeated three times in triplicate was considered evidence for antagonism. A true antagonistic response was differentiated from cellular toxicity by direct observation, trypan blue staining (a technique well known to one of normal skill in the art), and loss of acid phosphatase activity. Specificity was assessed for the antagonist by evaluating whether the activity was substantially expressed against other proliferative agents such as steel factor, interleukin 3, or interleukin 4.
The MO7e line is a human megakaryoblastic cell line, cultured in RPMI 1640 (GIBCO/BRL, Gaithersburg, Md.), 20% Fetal Bovine Serum (Hyclone) and 10 ng/ml IL-3 (R&D Systems, Minneapolis, Minn.). The MJ line is a cytokine independent human lymphoblastoid cell line grown in RPMI 1640 (GIBCO/BRL) K562 is a human erthroleukemia cell line, cultured in RPMI 1640 (GIBCO/BRL) and 10% fetal bovine serum (Hyclone). C8166-45 is a IL-9 receptor bearing line, cultured in RPMI 1640 GIBCO/BRL) and 10% Fetal bovine serum (Hyclone). All the cell lines respond to cytokines including IL-9. The cell lines are fed and reseeded at 2×10^5 cells/ml every 72 hours.
The cells were centrifuged for 10 minutes at 2000 rpm and resuspended in RPMI 1640 with 0.5% Bovine Serum Albumin (GIBCO/BRL, Gaithersburg, Md.) and insulin-transferrin-selenium (ITS) cofactors (GIBCO/BRL, Gaithersburg, Md.). Cells were counted using a hemocytometer and diluted to a concentration of 1×10^5 cells/ml and plated in a 96-well microtiter plate. Each well contained 0.15 or 0.2 ml giving a final concentration of 2×10^4 cells per well.
MO7e cells were stimulated with 50 ng/ml Stem Cell Factor (SCF) (R&D Systems, Minneapolis, Minn.) alone, 50 ng/ml SCF plus 50 ng/ml IL-3 (R&D Systems, Minneapolis, Minn.), or 50 ng/ml SCF plus 50 ng/ml IL-9. A control was included which contains cells and basal media only. Serial dilutions of test compounds (i.e., recombinant IL-9 proteins, peptides, small molecules) were added to each test condition in triplicate. The MJ cell line was used as an independent control for nonspecific cytotoxicity. Cultures were incubated for 72-96 hours at 37° C. in 5% CO2.
Cell proliferation was assayed using the Abacus Cell Proliferation Kit (Clontech, Palo Alto, Calif.) which determines the amount of intracellular acid phosphatase present as an indication of cell number. The substrate p-nitrophenyl phosphate (pNPP) was converted by acid phosphatase to p-nitrophenol which was measured as an indicator of enzyme concentration. pNPP was added to each well and incubated at 37° C. for one hour. 1N sodium hydroxide was then added to stop the enzymatic reaction, and the amount of p-nitrophenol was quantified using a Dynatech 2000 plate reader (Dynatech Laboratories, Chantilly, Va.) at 410 nm wavelength. Standard curves that compare cell number with optical absorbance were used to determine the linear range of the assay. Assay results were only used when absorbance measurements are within the linear range of the assay.

[2] = target: T1, Soluble IL-9 receptor (Homo sapiens, UniProt Q01113); assay: Binding of recombinant IL-9 forms to soluble IL-9 receptor (anti-FLAG immunoprecipitation, Western blot); conditions: 0.5 micrograms soluble receptor (amino acids 44 to 270), PBS, room temperature, 30 minutes
T1 construct: Soluble IL-9 receptor including amino acids 44 to 270 (R&D Systems); purchased R&D Systems
T1 sequence (Q01113 44-270): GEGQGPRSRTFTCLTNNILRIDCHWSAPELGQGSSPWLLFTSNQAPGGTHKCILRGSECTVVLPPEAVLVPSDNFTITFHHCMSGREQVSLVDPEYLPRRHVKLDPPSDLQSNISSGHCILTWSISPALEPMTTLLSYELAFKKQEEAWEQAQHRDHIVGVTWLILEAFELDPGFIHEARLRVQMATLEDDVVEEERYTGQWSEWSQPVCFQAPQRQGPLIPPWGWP
Procedure: Soluble IL-9 receptor including amino acids 44 to 270 (R&D Systems) was incubated with different forms of human recombinant IL-9. Varying amounts of FlagMet117 and FlagThr117 (described in Example 7) were incubated in PBS at room temperature for 30 minutes with 0.5 micrograms of soluble receptor. EBC buffer (50 mM Tris pH 7.5; 0.1 M NaCl; 0.5% NP40) was added (300 microliters) was added along with 1 microgram of anti-FLAG monoclonal antibody (IBI) and incubated for 1 hour on ice. Forty microliters of protein A sepharose solution was added to each sample and mixed for 1 hour at 4° C. Samples were centrifuged for 1 minute 11,000×G and pellets were washed 4 times with 500 microliters of EBC. Pellets were dissolved in 26 microliters of 2×SDS buffer, boiled for 4 minutes, and electrophoresed through an 18% SDS polyacrylamide gel. Western blots were performed as described in Example 15 except the blots were probed with an anti-IL-9 receptor antibody (R&D Systems).

Row | Compound | inhibition of cellular growth induced by IL-9 (antagonism of IL-9) [1] | further results
1 | KP-24: peptide derived from IL-9 exon 5, SEQ ID NO: 16, spanning the codon 117 polymorphism (TAGNALTFLKSLLEIFQK; Residues 99-116 of Mature hIL-9 Receptor) | antagonistic properties | 
2 | KP-20: antagonistic peptide derived from IL-9 exon 4, IL-9 residues 71-90, SEQ. ID NO: 14 (FSRVKKSVEVLKNNKAPY) | considerable inhibitory activity; also recorded: act as IL-9 antagonists | 
3 | N#C/C(=C\c1ccc(O)c(O)c1)C(=O)NCCCc1ccccc1 [Tyrophostin B46, reference compound] |  | inhibition of cellular growth induced by IL-9 [1]: greatest inhibition
4 | N#C/C(=C\c1ccc(O)c(O)c1)C(=O)NCCCCc1ccccc1 [Tyrophostin B56, reference compound] |  | inhibition of cellular growth induced by IL-9 [1]: greatest inhibition
5 | KP-23: peptide derived from IL-9 exon 5, SEQ ID NO: 15, spanning the codon 117 polymorphism (EQPANQTTAGNALTFLKS) | antagonistic properties | 
6 | KP-16: antagonistic peptide derived from IL-9 exon 4, IL-9 residues 43-60, SEQ. ID NO: 13 (SDNATRPAFSERLSQMTN) | considerable inhibitory activity; also recorded: act as IL-9 antagonists | 
7 | IL-9 FlagMet117: purified recombinant human FLAG IL-9 fusion protein with methionine at position 117 |  | binding to soluble IL-9 receptor [2]: bound to the soluble receptor
